The supplement of paper PMC6045584
± gives the standard deviation of the averaged measurements.

Assays:
[1] = compound: Cc1nc(Nc2ncc(C(=O)Nc3c(C)cccc3Cl)s2)cc(N2CCN(CCO)CC2)n1 [DASATINIB]; experiment: surviving fraction relative to DMSO-only wells; higher = less growth inhibition; conditions: exposure time: 5 days
Outline: (§1)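 Log-phase tumour cell lines were seeded at 250–500 cells per well in 384-well plates. After 24 hours they were exposed continuously for five days to inhibitors at 0.5, 1, 5, 10, 50, 100, 500 and 1000 nM. Viability was read by CellTiter-Glo luminescence after 10 minutes at room temperature, and surviving fraction is luminescence normalised to the median of DMSO-only wells. Each line was screened three times and kept only if replicate Pearson r >0.7 and median Z' >0.3.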

[2] = compound: CNCc1ccc(-c2[nH]c3cc(F)cc4c3c2CCNC4=O)cc1; experiment: as above; conditions: exposure time: 5 days
Outline: as §1

Test System	surviving fraction ([1]; 0.5 nM)	surviving fraction ([1]; 1 nM)	surviving fraction ([1]; 5 nM)	surviving fraction ([1]; 10 nM)	surviving fraction ([1]; 50 nM)	surviving fraction ([1]; 100 nM)	surviving fraction ([1]; 500 nM)	surviving fraction ([1]; 1000 nM)	surviving fraction ([2]; 0.5 nM)	surviving fraction ([2]; 1 nM)	surviving fraction ([2]; 5 nM)	surviving fraction ([2]; 10 nM)	surviving fraction ([2]; 50 nM)	surviving fraction ([2]; 100 nM)	surviving fraction ([2]; 500 nM)	surviving fraction ([2]; 1000 nM)
CASKI CERVIX	0.732 ± 0.045	0.777 ± 0.052	0.69 ± 0.024	0.474 ± 0.03	0.121 ± 0.0042	0.0747 ± 0.0047	0.0433 ± 0.0023	0.0293 ± 0.00058	0.893 ± 0.022	0.968 ± 0.014	0.992 ± 0.015	0.939 ± 0.024	0.89 ± 0.03	0.898 ± 0.077	0.923 ± 0.12	0.848 ± 0.034
BT549 BREAST	0.968 ± 0.16	0.937 ± 0.12	0.774 ± 0.12	0.669 ± 0.056	0.395 ± 0.037	0.236 ± 0.018	0.113 ± 0.012	0.114 ± 0.037	0.958 ± 0.011	1.01 ± 0.16	0.972 ± 0.078	1.04 ± 0.081	0.753 ± 0.13	0.818 ± 0.073	0.828 ± 0.069	0.881 ± 0.056
MHM BONE	0.966 ± 0.032	0.933 ± 0.058	0.846 ± 0.065	0.815 ± 0.049	0.686 ± 0.011	0.635 ± 0.0097	0.525 ± 0.0055	0.488 ± 0.018	1.02 ± 0.025	1.02 ± 0.035	1.05 ± 0.015	1.06 ± 0.051	1.06 ± 0.039	1.074 ± 0.0062	1.09 ± 0.022	1.07 ± 0.041
DU4475 BREAST	0.824 ± 0.17	0.828 ± 0.09	0.802 ± 0.1	0.689 ± 0.21	0.658 ± 0.031	0.748 ± 0.15	0.669 ± 0.2	0.514 ± 0.083	1.02 ± 0.066	0.921 ± 0.1	0.969 ± 0.03	0.881 ± 0.063	0.807 ± 0.12	0.696 ± 0.053	0.612 ± 0.088	0.479 ± 0.074
MDAMB468 BREAST	0.872 ± 0.069	0.881 ± 0.038	0.909 ± 0.028	0.836 ± 0.11	0.858 ± 0.099	0.718 ± 0.065	0.488 ± 0.055	0.481 ± 0.055	0.941 ± 0.048	0.89 ± 0.085	0.917 ± 0.034	0.929 ± 0.056	0.8 ± 0.047	0.746 ± 0.065	0.761 ± 0.048	0.609 ± 0.12
LNCAP PROSTATE	1.14 ± 0.05	1.1 ± 0.082	1.03 ± 0.075	0.941 ± 0.12	0.678 ± 0.032	0.504 ± 0.053	0.572 ± 0.012	0.589 ± 0.076	1.09 ± 0.059	1.14 ± 0.038	1.01 ± 0.095	0.907 ± 0.093	1.02 ± 0.047	0.946 ± 0.013	0.969 ± 0.056	0.73 ± 0.057
SNU475 LIVER	0.799 ± 0.0098	0.774 ± 0.018	0.602 ± 0.021	0.519 ± 0.036	0.469 ± 0.02	0.349 ± 0.021	0.242 ± 0.025	0.255 ± 0.032	0.999 ± 0.052	0.982 ± 0.039	0.992 ± 0.065	0.99 ± 0.026	0.919 ± 0.027	0.916 ± 0.028	0.863 ± 0.053	0.892 ± 0.043
HUO3N1 BONE	0.8227 ± 0.0049	0.747 ± 0.029	0.568 ± 0.083	0.457 ± 0.032	0.331 ± 0.0068	0.2553 ± 0.0021	0.232 ± 0.013	0.215 ± 0.0027	1.04 ± 0.061	1.02 ± 0.062	1.04 ± 0.038	0.987 ± 0.099	0.933 ± 0.06	0.988 ± 0.04	0.884 ± 0.039	0.85 ± 0.032
HCC1806 BREAST	0.682 ± 0.085	0.639 ± 0.021	0.71 ± 0.059	0.639 ± 0.075	0.446 ± 0.017	0.219 ± 0.038	0.167 ± 0.015	0.149 ± 0.021	1.05 ± 0.074	0.879 ± 0.021	1.02 ± 0.024	1.07 ± 0.094	0.77 ± 0.076	0.74 ± 0.09	0.601 ± 0.046	0.521 ± 0.026
COLO320DM LARGE INTESTINE	1.12 ± 0.096	1.01 ± 0.051	1.08 ± 0.074	1.1 ± 0.034	1.03 ± 0.028	1.02 ± 0.056	1.09 ± 0.045	1.09 ± 0.089	1.04 ± 0.067	1.05 ± 0.021	1.12 ± 0.027	0.962 ± 0.1	0.96 ± 0.04	0.933 ± 0.12	0.933 ± 0.066	0.901 ± 0.014
ZR751 BREAST	0.934 ± 0.066	0.965 ± 0.23	0.851 ± 0.098	0.835 ± 0.045	0.877 ± 0.12	0.852 ± 0.18	1 ± 0.14	0.922 ± 0.17	0.991 ± 0.15	0.962 ± 0.049	0.981 ± 0.075	1.1 ± 0.11	0.873 ± 0.056	0.903 ± 0.075	0.823 ± 0.037	0.709 ± 0.12
